Data on nine compounds can be found in article PMC4774911, “Biochemical Screening of Five Protein Kinases from Plasmodium falciparum against 14,000 Cell-Active Compounds” (PLoS ONE, 2016).

Where two headings read alike, the source gives them in different places. Where only a bound is given, the exact number is not on record here.

In test [1] the target is T1, Plasmodium falciparum calcium-dependent protein kinase 1 (CDPK1) (Plasmodium falciparum, UniProt P62344).
T1 construct: 6-Histidine (N); made in house
The test is described as follows: CDPK1 Kinase-Glo ATP-consumption screen and dose-response. It counts as biochemical. To be noted: hits below 1 uM; read-out: CDPK1 IC50. A digest of the protocol:
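Single-point testing used 1 μM final compound, then dose-response, against CDPK4 and CDPK1 with Syntide-2 (40 μM) as substrate. After 90 min, reactions were halted by 5 mM EGTA, and kinase activity was inferred from depleted ATP via Kinase-Glo luminescence.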
In general terms: Kinase-Glo measures the ATP left after a reaction by luminescence.

Test [2] has as its target T2, Plasmodium falciparum calcium-dependent protein kinase 4 (CDPK4) (Plasmodium falciparum, UniProt Q8IBS5).
T2 construct: 6-Histidine (N); made in house
T2 sequence (Q8IBS5 1-528): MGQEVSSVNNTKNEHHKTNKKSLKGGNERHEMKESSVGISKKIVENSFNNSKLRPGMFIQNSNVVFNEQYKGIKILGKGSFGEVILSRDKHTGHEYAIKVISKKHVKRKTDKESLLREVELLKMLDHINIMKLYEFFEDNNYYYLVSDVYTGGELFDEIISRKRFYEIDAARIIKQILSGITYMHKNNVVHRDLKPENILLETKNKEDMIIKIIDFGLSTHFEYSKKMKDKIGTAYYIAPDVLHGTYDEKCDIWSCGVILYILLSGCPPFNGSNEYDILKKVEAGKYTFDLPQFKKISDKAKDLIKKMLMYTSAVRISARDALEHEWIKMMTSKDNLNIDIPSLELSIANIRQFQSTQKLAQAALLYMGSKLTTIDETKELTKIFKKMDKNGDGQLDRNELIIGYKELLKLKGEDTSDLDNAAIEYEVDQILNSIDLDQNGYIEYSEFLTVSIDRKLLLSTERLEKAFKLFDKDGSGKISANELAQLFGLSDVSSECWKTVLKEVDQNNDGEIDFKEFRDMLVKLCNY
The test is described as follows: CDPK4 Kinase-Glo ATP-consumption screen and dose-response. It counts as biochemical. Particulars: hits below 1 uM. Here is the method: Biochemical assays were performed in white 384-well plates (Nunc). Liquid transfers were done manually with 8-channel pipets. Compounds were initially tested in a single-point screen (final concentration 1 μM). […] The catalytic activity of each kinase was considered proportional to ATP consumed, as determined from measurements of residual [ATP] with the luciferase-based reagent Kinase-Glo (Promega) following incubation. Luminescence (proportional to residual [ATP]) was measured on the plate readers FLx800 (BioTek Instruments, Winooski, VT, USA) and MicroBeta^2 (PerkinElmer, Waltham, MA, USA). Incubation times were chosen to ensure near-complete ATP depletion in the absence of inhibition, thus maximizing the difference in signal between inhibited and uninhibited wells.
40 μM Syntide-2 was used as a substrate; BKI-1 [14] was used as a control inhibitor, while reaction mixtures lacking Syntide-2 were included as an additional negative control. Incubation time was 90 minutes. Reactions were terminated by adding excess EGTA (5 mM), which sequesters Ca^2+ and halts calcium-dependent kinase activity.

A further test deals with PKG (Plasmodium falciparum, UniProt Q8I719). As to the kind of experiment: PKG IC50 (supplementary data file). The test is classed as biochemical. An excerpt: Supplement pone.0149996.s003.xls, sheet "combined_1_sorted"
The test system of a further test is HepG2 cells. Particulars: cited from earlier work.
The next test has as its system P. falciparum 3D7 cells. To be noted: 3D7, cited from earlier work.
The subject of test [3] is DD2. Also noted: method as in F.J. Gamo et al., Nature 2010. To be noted: downloaded from ChEMBL, ref F.J. Gamo et al., Nature 2010; cited from earlier work.
Test [4] relates to 3D7 PFLDH. Also noted: method as in F.J. Gamo et al., Nature 2010; concentration or dose not given beside the values. To be noted: downloaded from ChEMBL, ref F.J. Gamo et al., Nature 2010; cited from earlier work.
In test [5] the test system is DD2. Also noted: method as in downloaded from ChEMBL. To be noted: ref downloaded from ChEMBL; cited from earlier work.
Test [6] relates to 3D7 PFLDH. Also noted: method as in downloaded from ChEMBL. To be noted: ref downloaded from ChEMBL; cited from earlier work.
[7] abbreviates: HepG2, downloaded from ChEMBL, ref F.J. Gamo et al., Nature 2010.
Setting [8] is: downloaded from ChEMBL, ref F.J. Gamo et al., Nature 2010.

Chain of PKG (Q8I719 whole entry): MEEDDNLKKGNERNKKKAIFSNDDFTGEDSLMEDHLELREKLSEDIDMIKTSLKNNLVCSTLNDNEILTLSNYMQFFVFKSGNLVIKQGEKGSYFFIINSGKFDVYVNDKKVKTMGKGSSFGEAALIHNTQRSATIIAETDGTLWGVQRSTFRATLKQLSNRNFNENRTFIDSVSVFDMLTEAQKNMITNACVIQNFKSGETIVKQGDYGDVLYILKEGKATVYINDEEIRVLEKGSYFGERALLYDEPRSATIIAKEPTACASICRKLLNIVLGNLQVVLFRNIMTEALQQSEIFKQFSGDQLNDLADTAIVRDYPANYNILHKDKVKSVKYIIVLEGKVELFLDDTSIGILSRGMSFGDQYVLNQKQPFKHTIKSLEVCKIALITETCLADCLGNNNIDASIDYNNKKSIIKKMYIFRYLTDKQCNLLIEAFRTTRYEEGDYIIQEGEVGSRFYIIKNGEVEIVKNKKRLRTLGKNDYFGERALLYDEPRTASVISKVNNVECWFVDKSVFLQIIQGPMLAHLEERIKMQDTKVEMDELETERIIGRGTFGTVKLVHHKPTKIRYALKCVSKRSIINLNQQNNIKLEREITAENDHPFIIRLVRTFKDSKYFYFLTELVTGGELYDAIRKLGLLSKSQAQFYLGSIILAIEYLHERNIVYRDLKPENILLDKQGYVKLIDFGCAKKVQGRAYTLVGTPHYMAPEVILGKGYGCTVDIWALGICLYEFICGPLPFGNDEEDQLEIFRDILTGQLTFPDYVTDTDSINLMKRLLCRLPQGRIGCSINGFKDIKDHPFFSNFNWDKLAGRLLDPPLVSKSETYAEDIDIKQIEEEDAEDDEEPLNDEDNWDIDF
T1 sequence (P62344 whole entry): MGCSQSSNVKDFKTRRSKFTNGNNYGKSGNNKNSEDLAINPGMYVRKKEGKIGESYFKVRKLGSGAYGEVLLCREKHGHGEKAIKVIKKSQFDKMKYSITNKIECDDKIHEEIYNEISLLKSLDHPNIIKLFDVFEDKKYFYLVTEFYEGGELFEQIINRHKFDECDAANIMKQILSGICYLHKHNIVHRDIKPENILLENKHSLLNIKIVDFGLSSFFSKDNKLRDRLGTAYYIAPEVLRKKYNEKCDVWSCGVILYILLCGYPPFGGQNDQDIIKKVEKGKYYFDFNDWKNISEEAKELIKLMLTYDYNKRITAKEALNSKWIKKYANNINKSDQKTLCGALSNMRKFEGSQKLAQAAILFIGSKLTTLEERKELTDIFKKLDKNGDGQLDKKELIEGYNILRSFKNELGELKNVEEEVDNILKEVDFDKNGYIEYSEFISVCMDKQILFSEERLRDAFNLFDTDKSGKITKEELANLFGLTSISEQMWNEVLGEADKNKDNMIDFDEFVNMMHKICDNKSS

In general, IC50 refers to the concentration at which inhibition is half-maximal. As for `Cc1cccc(Nc2nc(N[C@@H]3CCCNC3)nc3cc[nH]c(=O)c23)c1.O=C(O)C(F)(F)F` [TCMDC-134835], the half-maximal inhibitory concentration (IC50) in test [1] worked out at 23 nM; in test [2] it was 76 nM; on PKG, 422 nM. The PCT_INHIB_HEPG2 with HepG2 cells (setting [7]) was 55%. Further, in the test on P. falciparum 3D7 cells (setting [8]), the PCT_IHB_3D7 was 99%. Further, the pXC50_3D7 in the test with P. falciparum 3D7 cells (setting [8]) is given as 6.166. Also, the PCT_INHB_DD2 with DD2 [3] is 98%. Also, the PCT_INHIB_3D7_PFLDH in the test with 3D7 PFLDH [4] was 1%.

Turning to `Cc1cccc(Nc2nc(NCCCCN)nc3cc[nH]c(=O)c23)c1.O=C(O)C(F)(F)F` [TCMDC-134946], the 50% inhibitory concentration (IC50) in [1] amounted to 566 nM; in test [2], 166 nM; at PKG it was 1580 nM. Further, the PCT_INHIB_HEPG2 in the test with HepG2 cells (setting [7]) is 34%. Besides, the PCT_IHB_3D7 in the test with P. falciparum 3D7 cells (setting [8]) is 98%. Besides, the pXC50_3D7 in the test on P. falciparum 3D7 cells (setting [8]) is recorded as 6.135. Further, in the test with DD2 [3], the PCT_INHB_DD2 is listed as 97%. In the test with 3D7 PFLDH [4], the PCT_INHIB_3D7_PFLDH was 0%.

On to `O=C(O)C(F)(F)F.O=c1[nH]ccc2nc(N[C@@H]3CCNC3)nc(Nc3cc(Cl)cc(Cl)c3)c12` [TCMDC-135052], for which the values for the concentration for half-maximal inhibition (IC50) (in test [1]; in [2]; on PKG) were 33 nM, 446 nM and 486 nM, respectively. Also, the PCT_INHIB_HEPG2 in the test with HepG2 cells (setting [7]) was 99%. Moreover, the PCT_IHB_3D7 in the test with P. falciparum 3D7 cells (setting [8]) is 100%. For the same compound, the pXC50_3D7 in the test with P. falciparum 3D7 cells (setting [8]) was 6.132. In the test on DD2 [3], the PCT_INHB_DD2 was 99%. In the test with 3D7 PFLDH [4], the PCT_INHIB_3D7_PFLDH is 0%.

In the case of `NCCCNc1nc(Nc2cccc(C(N)=O)c2)c2c(=O)[nH]ccc2n1.O=C(O)C(F)(F)F` [TCMDC-135053], the results for the IC50 (in test [1]; in [2]; against PKG) were 750 nM, 967 nM and 7330 nM, respectively. Besides, the PCT_INHIB_HEPG2 in the test on HepG2 cells (setting [7]) is listed as 9%. For the same compound, the PCT_IHB_3D7 in the test with P. falciparum 3D7 cells (setting [8]) is given as 99%. Also, the pXC50_3D7 in the test on P. falciparum 3D7 cells (setting [8]) was 6.226. Moreover, the PCT_INHB_DD2 with DD2 [3] was 49%. Moreover, in the test with 3D7 PFLDH [4], the PCT_INHIB_3D7_PFLDH is on record as 0%.

`NS(=O)(=O)c1cccc(Nc2nc(N[C@@H]3CCNC3)nc3cc[nH]c(=O)c23)c1.O=C(O)C(F)(F)F` [TCMDC-135057]: the figures for the concentration for half-maximal inhibition (IC50) (in [1]; in test [2]; against PKG) were 83 nM, 135 nM and 1850 nM, respectively. Further, the PCT_INHIB_HEPG2 in the test with HepG2 cells (setting [7]) is reported as 7%. Besides, the PCT_IHB_3D7 with P. falciparum 3D7 cells (setting [8]) was 99%. Besides, in the test on P. falciparum 3D7 cells (setting [8]), the pXC50_3D7 is reported as 6.027. Besides, the PCT_INHB_DD2 in the test with DD2 [3] is recorded as 98%. Also, the PCT_INHIB_3D7_PFLDH in the test on 3D7 PFLDH [4] is on record as 0%.

`CCn1c(-c2nonc2N)nc2c(-c3cc4ccccc4s3)ncc(C(=O)N3CCC(N)C3)c21.O=C(O)C(F)(F)F` (stereo not drawn) [TCMDC-135281]: in test [2], the IC50 was 89 nM. Also, at PKG, the concentration for half-maximal inhibition (IC50) stood at 6940 nM. The PCT_INHIB_HEPG2 in the test with HepG2 cells (setting [7]) was 99%. Also, in the test on P. falciparum 3D7 cells (setting [8]), the PCT_IHB_3D7 is reported as 98% and the pXC50_3D7 is listed as 6.06. Moreover, the PCT_INHB_DD2 in the test on DD2 [3] is recorded as 66%. Further, in the test on 3D7 PFLDH [4], the PCT_INHIB_3D7_PFLDH was 5%.

For `CCn1c(-c2nonc2N)nc2c(-c3ccccc3)ncc(OCCCNCCCN3CCOCC3)c21.O=C(O)C(F)(F)F` [TCMDC-135858], the 50% inhibitory concentration (IC50) is 42 nM in [1], 38 nM in test [2] and 126 nM on PKG. Moreover, the PCT_INHIB_HEPG2 in the test with HepG2 cells (setting [7]) is 28%. Also, in the test with P. falciparum 3D7 cells (setting [8]), the PCT_IHB_3D7 is given as 100%. In addition, the pXC50_3D7 with P. falciparum 3D7 cells (setting [8]) is 6.174. Moreover, the PCT_INHB_DD2 with DD2 [3] is 91%. In addition, the PCT_INHIB_3D7_PFLDH in the test on 3D7 PFLDH [4] was 0%.

For `O=C(NC1CC1)c1ccc(Nc2nccc(-c3c(-c4cccc(NC(=O)c5c(F)cccc5F)c4)nn4ccccc34)n2)cc1` [TCMDC-136002], in test [1], the IC50 was 26 nM. For the same compound, at PKG, the IC50 was more than 10000 nM. The PCT_INHIB_HEPG2 in the test on HepG2 cells (HEPG2, ref downloaded from ChEMBL) is 84. Further, in the test with P. falciparum 3D7 cells (ref downloaded from ChEMBL), the PCT_IHB_3D7 was 94 and the pXC50_3D7 is recorded as 6.386. Also, the PCT_INHB_DD2 in the test with DD2 [5] is on record as 96. For the same compound, in the test with 3D7 PFLDH [6], the PCT_INHIB_3D7_PFLDH is 0.

On to `Cl.NCCCOc1cnc(-c2ccccc2)c2nc(-c3nonc3N)n(CCc3ccccc3)c12` [TCMDC-136216], for which the concentration for half-maximal inhibition (IC50) in test [1] is 47 nM. At PKG, the IC50 is more than 10000 nM. The PCT_INHIB_HEPG2 in the test on HepG2 cells (setting [7]) is 56%. Also, in the test on P. falciparum 3D7 cells (setting [8]), the PCT_IHB_3D7 is listed as 93% and the pXC50_3D7 was 5.895. In addition, the PCT_INHB_DD2 in the test with DD2 [3] is 86%. In addition, the PCT_INHIB_3D7_PFLDH in the test on 3D7 PFLDH [4] was 0%.
